Earlier results in patent US20120264119A1, “NEW METHOD FOR DECONTAMINATION AND PROCESSING OF CLINICAL SPECIMENS FROM A PATIENT” (priority 2011, published 2012).

System: Mycobacteria
Conditions: sputum processing with sodium hydroxide alone or with N-acetyl-cysteine

For `[Na+].[OH-]` [NaOH, sodium hydroxide], the viable mycobacteria destroyed is given as “more than 80%”.
